The values that follow come from patent publication US12616753B2, “HSP70 inhibitors and methods of using same” (THE WISTAR INSTITUTE, priority 2020, dated 2026).

The target in experiment [1] is T1, full length human HSP70 (Homo sapiens, UniProt P0DMV8).
T1 construct: Five μL of 30 nM full length human HSP70 in assay buffer
Nature of the experiment: HSP70 mediated ATPase assay (Transcreener ADP-FI). The class given is biochemical. The procedure:
(§1) FIGS. 1A-1D show ATPase inhibition and direct binding of a novel HSP70 inhibitor. FIG. 1A: Compounds AP-3-97 and AP-4-139B are direct inhibitors of HSP70. HSP70 mediated ATPase activity was assessed using the TRANSCREENER® ADP-FI assay. Five microliters of 30 nM purified human HSP70 in assay buffer was added to test compounds for 30 minutes, followed by addition of excess ATP. After 15 minutes, reactions were stopped and fluorescence was assessed on a plate reader. Data are normalized to percent inhibition, where 100% is the value in the absence of HSP70, and 0% is the value in the presence of HSP70. Compounds shown include PET-16 (positive control) and the novel HSP70 inhibitors AP-3-97 and AP-4-139B. VY-3-277 was used as a negative control. FIG. 1B: Compound AP-4-139B binds HSP70. Whole cell extracts (WCE) from H1299 cells were incubated with 10 μM Biotin or with a Biotin-labeled variant of AP-4-139B (Biotin-AP-4-139B) for 5 hours. Biotin-AP-4-139B containing complexes were captured using NeutrAvidin resins and separated by SDS-PAGE. The Coomassie-stained protein band of approximately 70 kDa was excised and subjected to tryptic digestion and liquid chromatography-tandem mass spectrometry, and identified to be HSP70. FIG. 1C: H1299 cells were pre-treated with 10 μM of VY-3-277, PET-16, or AP-4-139B for 1 hour prior to the addition of 10 μM Biotin-AP-4-139B for 5 hours. Biotin-AP-4-139B containing complexes were captured by NeutrAvidin resins and immunoblotted using the indicated antibodies following SDS-PAGE. Whole cell extracts (WCE) were examined for the expression of HSP70 (input) and GRP75 (input) by Western blot analysis. FIG. 1D: Compound AP-4-139B directly binds purified human HSP70. […] Data were analyzed using the evaluation software from Biacore and the resulting sensograms were exported and re-plotted in GraphPad Prism.
HSP70 mediated ATPase activity was measured using the Transcreener® ADP-FI assay (BellBrook Labs). […] After 30 minutes, fluorescence at 560/620 nm was measured using the Envision plate reader. […]

Experiment [2] has as its target T2, HSP70 (Homo sapiens, UniProt P0DMV8).
T2 construct: BAP-4-139B successfully precipitated a single protein from H1299 cells; endogenous in cells; host or cells: H1299 human lung carcinoma cells
Put plainly: HSP70 competition assay in H1299 cells. In kind it is binding. To be noted: 10 μM, one-hour pre-incubation. The protocol:
as §1, with “HSP70.” for “HSP70. FIG. 1C: H1299 cells were pre-treated with 10 μM of VY-3-277, PET-16, or AP-4-139B for 1 hour prior to the addition of 10 μM Biotin-AP-4-139B for 5 hours. Biotin-AP-4-139B containing complexes were captured by NeutrAvidin resins and immunoblotted using the indicated antibodies following SDS-PAGE. Whole cell extracts (WCE) were examined for the expression of HSP70 (input) and GRP75 (input) by Western blot analysis. FIG. 1D: Compound AP-4-139B directly binds purified human HSP70.”, “Prism. […]” for “Prism.”

Structures are written as SMILES. pIC50: −log10 of the molar value.

T2 sequence (P0DMV8 whole entry): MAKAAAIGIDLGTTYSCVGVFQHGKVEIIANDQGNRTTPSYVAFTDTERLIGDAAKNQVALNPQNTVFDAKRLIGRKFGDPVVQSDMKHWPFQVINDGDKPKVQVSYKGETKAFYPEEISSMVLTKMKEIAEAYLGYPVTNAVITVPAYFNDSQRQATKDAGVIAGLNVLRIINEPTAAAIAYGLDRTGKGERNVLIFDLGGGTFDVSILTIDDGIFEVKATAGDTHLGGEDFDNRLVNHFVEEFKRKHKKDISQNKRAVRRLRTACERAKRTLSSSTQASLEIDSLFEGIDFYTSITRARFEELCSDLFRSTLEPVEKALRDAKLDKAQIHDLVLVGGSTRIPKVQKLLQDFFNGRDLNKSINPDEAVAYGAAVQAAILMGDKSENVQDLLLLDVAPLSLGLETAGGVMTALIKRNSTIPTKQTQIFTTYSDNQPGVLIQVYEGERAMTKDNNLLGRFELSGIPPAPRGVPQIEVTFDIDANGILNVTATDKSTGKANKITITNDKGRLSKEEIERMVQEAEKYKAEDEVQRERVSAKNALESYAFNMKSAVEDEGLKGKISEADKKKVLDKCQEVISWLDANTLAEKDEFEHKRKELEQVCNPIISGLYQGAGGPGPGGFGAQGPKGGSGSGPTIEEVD
T1 sequence (P0DMV8 whole entry): as above

As a reminder, the pIC50 is the IC50 on a negative log10 scale, so that one unit is a factor of ten. On to `C(#C[P+](c1ccccc1)(c1ccccc1)c1ccccc1)c1ccccc1` [PET-16, Triphenyl(phenylethynyl)phosphonium bromide, reference compound], for which the pIC50 in experiment [1] is about 5.52. Besides, the “prevention of BAP-4-139B pull down of HSP70” value in experiment [2] was “prevented the ability of BAP-4-139B to pull down HSP70”.

As to `c1ccc(-c2cn3nc(CCCCCC[P+](c4ccccc4)(c4ccccc4)c4ccccc4)sc3n2)cc1` [AP-4-139B, Triphenyl(6-(6-phenylimidazo[2,1-b][1,3,4]thiadiazol-2-yl)hexyl)phosphonium bromide], the “inhibition of HSP70 ATPase activity (in words)” value in experiment [1] is “markedly superior potency”. For the same compound, the “prevention of BAP-4-139B pull down of HSP70” value in experiment [2] is on record as “prevented the ability of BAP-4-139B to pull down HSP70”.
